Data published in the NIST ThermoML archive (doi:10.1021/acs.jced.5b00934).

Conditions: Liquid, Vibrating tube method

CCC(C)O (centres undefined) [butan-2-ol]
Conditions | mass density [kg/m3]
323.15 K, 57941 kPa | 822.2
323.15 K, 65042 kPa | 826.2
323.16 K, 83 kPa | 780.1
323.16 K, 310 kPa | 780.3
323.16 K, 904 kPa | 780.9
323.16 K, 2023 kPa | 781.9
323.16 K, 2969 kPa | 782.8
323.16 K, 22069 kPa | 798.7
323.16 K, 30034 kPa | 804.5
323.16 K, 32030 kPa | 805.9
323.16 K, 33179 kPa | 806.7
323.16 K, 34081 kPa | 807.3
323.16 K, 35135 kPa | 808
323.16 K, 44962 kPa | 814.4
323.16 K, 48021 kPa | 816.3
323.16 K, 55018 kPa | 820.5
323.16 K, 60048 kPa | 823.4
323.16 K, 62109 kPa | 824.6
323.16 K, 66222 kPa | 826.9
328.15 K, 97 kPa | 775.5
328.15 K, 549 kPa | 775.9
328.15 K, 2980 kPa | 778.3
328.15 K, 6989 kPa | 782.1
328.15 K, 9026 kPa | 784
328.15 K, 10174 kPa | 785
328.15 K, 15005 kPa | 789.1
328.15 K, 17974 kPa | 791.5
328.15 K, 22112 kPa | 794.8
328.15 K, 28057 kPa | 799.3
328.15 K, 30020 kPa | 800.7
328.15 K, 32096 kPa | 802.2
328.15 K, 33090 kPa | 802.9
328.15 K, 34106 kPa | 803.6
328.15 K, 38003 kPa | 806.3
328.15 K, 40189 kPa | 807.7
328.15 K, 42227 kPa | 809.1
328.16 K, 325 kPa | 775.7
328.16 K, 909 kPa | 776.3
328.16 K, 1025 kPa | 776.4
328.16 K, 2032 kPa | 777.5
328.16 K, 4986 kPa | 780.3
328.16 K, 12064 kPa | 786.6
328.16 K, 20081 kPa | 793.3
328.16 K, 25008 kPa | 797.1
328.16 K, 33187 kPa | 802.9
328.16 K, 35148 kPa | 804.3
328.16 K, 45203 kPa | 811.1
328.16 K, 48119 kPa | 812.8
328.16 K, 50027 kPa | 814
328.16 K, 52217 kPa | 815.4
328.16 K, 55140 kPa | 817.1
328.16 K, 58016 kPa | 818.7
328.16 K, 59968 kPa | 819.8
328.16 K, 61968 kPa | 820.9
328.16 K, 65013 kPa | 822.7
328.16 K, 66143 kPa | 823.3
333.15 K, 100 kPa | 770.5
333.15 K, 350 kPa | 770.7
333.15 K, 494 kPa | 770.9
333.15 K, 901 kPa | 771.3
333.15 K, 1016 kPa | 771.5
333.15 K, 2000 kPa | 772.4
333.15 K, 3021 kPa | 773.4
333.15 K, 5004 kPa | 775.4
333.15 K, 7066 kPa | 777.4
333.15 K, 8994 kPa | 779.1
333.15 K, 10031 kPa | 780
333.15 K, 11980 kPa | 781.8
333.15 K, 15020 kPa | 784.5
333.15 K, 17985 kPa | 786.9
333.15 K, 22042 kPa | 790.2
333.15 K, 25059 kPa | 792.7
333.15 K, 28048 kPa | 794.9
333.15 K, 29961 kPa | 796.3
333.15 K, 32126 kPa | 798
333.15 K, 32780 kPa | 798.4
333.15 K, 32804 kPa | 798.4
333.15 K, 33981 kPa | 799.2
333.15 K, 35081 kPa | 800
